This experiment is described as follows: Cytotoxicity against mouse P388 cells assessed as reduction in cell viability measured after 72 hrs by XTT assay. The following applies: P388, 72 h. It is filed as functional, cell-based. (Tetrazolium dyes change colour on reduction, which living cells bring about.)
Take `CC1=C[C@@H]2O[C@]34CC[C@](O)(C1)[C@H]2[C@]3(O)[C@@H](O)c1cccc(O)c1C4=O`: the IC50 came out at 28.6 µM.

On to `CC1=C[C@@H](O)[C@H]2[C@](O)(CC[C@]3(Oc4cccc5c4C(=O)[C@]46CC[C@]7(O)CC(C)=C[C@@H](O)[C@@H]7[C@]4(O6)[C@H]5O)C(=O)c4c(O)cccc4[C@H](O)[C@@]23O)C1`, for which the IC50 came to 9.7 µM.

Take `CC1=CC(=O)C2=C3[C@@H](O)c4cccc(O)c4C(=O)[C@]3(O)CC[C@]2(O)C1`: the IC50 was found to be 12 µM.

With `C[C@@]1(O)C=C[C@H]2[C@](O)(CC[C@]34O[C@]23[C@@H](O)c2cccc(O)c2C4=O)C1`, the IC50 was found to be 7.6 µM.

Take `CC1=C[C@@H](O)[C@H]2[C@](O)(CC[C@]34O[C@]23[C@@H](O)c2cccc(O[C@]35CC[C@]6(O)C[C@@](C)(O)C=C[C@@H]6[C@]3(O)[C@@H](O)c3cccc(O)c3C5=O)c2C4=O)C1`: the IC50 was determined as 10.7 µM.

Regarding `C[C@]1(O)C=C[C@H]2[C@](O)(CC[C@]34O[C@]23[C@@H](O)c2cccc(O)c2C4=O)C1`, the IC50 came to 1.8 µM.

As to `CC1=C[C@@H](O)[C@@H]2C(=O)[C@@]3(CC[C@]2(O)C1)C(=O)c1c(O)cccc1[C@H]3O`, the IC50 worked out at 53.3 µM.

With `CC1=C[C@@H](O)[C@H]2[C@](O)(CC[C@]34O[C@]23[C@@H](O)c2cccc(O)c2C4=O)C1`, the IC50 was determined as 1.7 µM.

In the case of `Cc1ccc2c(c1)CC[C@]1(S[C@]34CCc5cc(C)ccc5[C@]3(O)[C@@H](O)c3cccc(O)c3C4=O)C(=O)c3c(O)cccc3[C@H](O)[C@@]21O`, the 50% inhibitory concentration (IC50) was 6.1 µM.

As usually defined, the IC50 is the concentration that inhibits the measured activity by half.
